How the values were obtained:
[1] = target: T1, Recombinant human VAP-1 SSAO (Homo sapiens, UniProt Q16853); experiment: In vitro inhibition of VAP-1 SSAO activity (coupled colorimetric method, benzylamine substrate); type: biochemical; conditions: CHO cell lysate, 1 mM benzylamine, read-out: VAP-1 SSAO Inhibitory activity IC50
T1 construct: made in house; host or cells: Chinese Hamster Ovary (CHO) cells; clarified NP40 cell lysate used directly
T1 sequence (Q16853 1-763): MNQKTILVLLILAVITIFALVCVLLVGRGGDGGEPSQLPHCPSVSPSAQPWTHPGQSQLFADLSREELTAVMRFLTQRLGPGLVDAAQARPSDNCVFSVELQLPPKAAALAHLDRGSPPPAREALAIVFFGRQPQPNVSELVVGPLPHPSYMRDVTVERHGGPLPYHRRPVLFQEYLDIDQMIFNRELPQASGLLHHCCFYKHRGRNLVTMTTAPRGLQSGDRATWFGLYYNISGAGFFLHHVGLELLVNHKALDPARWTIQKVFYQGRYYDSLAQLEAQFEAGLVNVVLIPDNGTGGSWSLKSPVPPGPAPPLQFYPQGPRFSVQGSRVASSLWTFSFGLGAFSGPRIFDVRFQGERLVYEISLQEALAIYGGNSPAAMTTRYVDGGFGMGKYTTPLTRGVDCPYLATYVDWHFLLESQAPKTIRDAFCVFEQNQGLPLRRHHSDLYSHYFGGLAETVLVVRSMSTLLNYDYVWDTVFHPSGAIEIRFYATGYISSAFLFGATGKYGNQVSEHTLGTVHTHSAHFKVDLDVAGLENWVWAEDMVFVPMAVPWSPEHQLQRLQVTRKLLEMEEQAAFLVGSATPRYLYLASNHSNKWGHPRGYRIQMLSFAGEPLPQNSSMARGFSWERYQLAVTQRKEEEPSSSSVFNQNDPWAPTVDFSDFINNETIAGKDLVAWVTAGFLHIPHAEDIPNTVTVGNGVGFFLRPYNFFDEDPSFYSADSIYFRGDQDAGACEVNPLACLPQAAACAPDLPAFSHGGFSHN
Experimental: VAP-1 SSAO activity was measured using the coupled colorimetric method essentially as described for monoamine oxidase and related enzymes (Holt, A., et al., Anal. Biochem. 244:384-392 (1997)). Recombinant human VAP-1 SSAO expressed in Chinese Hamster Ovary (CHO) cells was used as a source of VAP-1 SSAO for activity measurements. Native CHO cells have negligible SSAO activity. These cells and their culture have previously been described (Smith, D. J., et al., J. Exp. Med. 188:17-27 (1998)). A cell lysate was prepared by suspending approximately 3.6×10^8 cells in 25 ml lysis buffer (150 mM NaCl, 10 mM Tris-Base pH 7.2, 1.5 mM MgCl2, 1% NP40) and incubating at 4° C. overnight on a rotating table. The lysate was clarified by centrifugation at 18 000 g for 5 min at room temperature and the supernatant used directly in the assay. The VAP-1 SSAO assay was performed in 96 well microtitre plates as follows. To each well was added a predetermined amount of inhibitor if required. The amount of inhibitor varied in each assay but was generally at a final concentration of between 1 nM and 50 μM. Controls lacked inhibitor. The inhibitor was in a total volume of 20 μl in water. The following reagents were then added. 0.2 M potassium phosphate buffer pH 7.6 to a total reaction volume of 200 μl, 50 μl of freshly made chromogenic solution containing 1 mM vanillic acid, 500 μM 4-aminoantipyrine and 8 U/ml horseradish peroxidase and an amount of CHO cell lysate containing VAP-1 SSAO that caused a change of 0.6 A490 per h. This was within the linear response range of the assay. The plates were incubated for 30 min at 37° C. and the background absorbance measured at 490 nm using a Wallac Victor II multilabel counter. To initiate the enzyme reaction 20 μl 10 mM benzylamine (final concentration=1 mM) was added and the plate incubated for 1 h at 37° C. The increase in absorbance, reflecting VAP-1 SSAO activity, was measured at 490 nm. Inhibition was presented as percent inhibition compared to control after correcting for background absorbance and IC50 values calculated using GraphPad Prism.

[2] = test system: Total MAO; experiment: Total rat MAO activity (rat liver mitochondrial preparation, tyramine substrate); type: biochemical
Experimental: Rat MAO was prepared from rat liver by rinsing the 1 g liver sample several times in 14 ml KCl-EDTA-solution to remove all blood. Then 1 g liver sample was homogenized in 4 ml ice-cold potassium phosphate buffer (0.1 M, pH 7.4) with an Ultra-Turrax homogenizer (setting 11 000 rpm, 4×10 s). After centrifugation at 500 g for 10 min at 4° C. the supernatant was carefully withdrawn and was centrifuged at 12 300 g for 15 min at 4° C. The supernatant was discharged and sedimented mitochondria were resuspended in 4 ml fresh phosphate buffer and centrifuged as previously. The mitochondria were suspended in 4 ml phosphate buffer and homogenized with an Ultra-Turrax homogenizer (setting 11 000 rpm, 2×10 s). Mitochondrial preparate was aliquoted and stored at −70° C. Total MAO activity was measured in a similar way as for VAP-1 SSAO except that SSAO enzyme was replaced by MAO enzyme. To each well was added a predetermined amount of inhibitor if required. The amount of inhibitor varied in each assay but was generally at a final concentration of between 10 nM and 800 μM. Controls lacked inhibitor. The inhibitor was in a total volume of 20 μl in water. The following reagents were then added. 0.2 M potassium phosphate buffer pH 7.6 for a total reaction volume of 200 μl, 50 μl of freshly made chromogenic solution (as above) and 50 μl of MAO preparation (or needed amount of MAO). The plates were incubated for 30 min at 37° C. and the background absorbance measured at 490 nm using a Wallac Victor II multilabel counter. To initiate the enzyme reaction 20 μl of 5 mM tyramine (final concentration 0.5 mM) was added and the plate incubated for 1 h at 37° C. The increase in absorbance, reflecting MAO activity, was measured at 490 nm. Inhibition was presented as percent inhibition compared to control after correcting for background absorbance and IC50 values calculated using GraphPad Prism. Clorgyline and pargyline (inhibitors of MAO-A and -B respectively) at 0.5 μM were added to some wells as positive controls for MAO inhibition.

| Structure (SMILES) | melting point | IC50 [1] | Total MAO Inhibitory activity (%) ([2]; at 100 μM) | Total MAO Inhibitory activity (%) ([2]; at 250 μM) | Total MAO Inhibitory activity (%) ([2]; at 50 μM) |
| --- | --- | --- | --- | --- | --- |
| CN(C)CCNc1cc(=O)n(-c2ccccc2)nc1-c1nc[nH]n1 [Compound 13] | 211 to 214 °C | 15000 nM | – | – | – |
| COc1ccc(Oc2cc(=O)n(-c3ccccc3)nc2-c2nc[nH]n2)cc1 [Compound 14] | 253 to 257 °C | 370 nM | 0% | – | – |
| O=c1cc(Sc2ccccc2)c(-c2nc[nH]n2)nn1-c1ccccc1 [Compound 16, 2-phenyl-5-phenylsulfanyl-6-(1H-1,2,4-triazol-3-yl)-3(2H)-pyridazinone] | 245 to 250 °C | 640 nM | 24% | – | – |
| Cn1cc(-c2nn(-c3ccccc3)c(=O)cc2Oc2ccccc2)cn1 [Compound 17, 6-(1-methyl-1H-pyrazol-4-yl)-5-phenoxy-2-phenylpyridazin-3(2H)-one] | 195 to 197 °C | 236000 nM | 22% | – | – |
| O=c1cc(Oc2ccccc2)c(-c2ccc(F)cc2)nn1-c1ccccc1 [Compound 22] | 146 to 148 °C | ~60000 nM | 0% | – | – |
| O=c1cc(Oc2ccccc2)c(-c2nc[nH]n2)nn1-c1ccc(Cl)cc1 [Compound 25] | 246 to 247 °C | 350 nM | 0% | – | – |
| COc1cccc(-n2nc(-c3nc[nH]n3)c(Oc3ccccc3)cc2=O)c1 [Compound 27] | 253 to 254 °C | 2000 nM | 3% | – | – |
| CNc1cc(=O)n(-c2ccccc2)nc1-c1nc[nH]n1 [Compound 28] | 245 to 247 °C | 3600 nM | 10% | – | – |
| CC(C)Nc1cc(=O)n(-c2ccccc2)nc1-c1nc[nH]n1 [Compound 29, 5-isopropylamino-2-phenyl-6-(1H-1,2,4-triazol-3-yl)-3(2H)-pyridazinone] | 203 to 205 °C | 270 nM | 9% | – | – |
| O=c1cc(Oc2ccccc2)c(-c2nc[nH]n2)cn1-c1ccccc1 [Compound 34, 4-phenoxy-5-(1H-1,2,4-triazol-3-yl)-1-phenylpyridin-2(1H)-one] | 275 to 276 °C | 1600 nM | 24% | – | – |
| CCOc1cc(=O)n(-c2ccccc2)nc1-c1nc[nH]n1 [Compound 36] | 195 to 197 °C | 16000 nM | 3% | – | – |

Continued, in another order:

| melting point | IC50 [1] | Structure (SMILES) | Total MAO Inhibitory activity (%) ([2]; at 100 μM) | Total MAO Inhibitory activity (%) ([2]; at 250 μM) | Total MAO Inhibitory activity (%) ([2]; at 50 μM) |
| --- | --- | --- | --- | --- | --- |
| 251 to 258 °C | 2000 nM | O=c1cc(NCCN2CCOCC2)c(-c2nc[nH]n2)nn1-c1ccccc1 [Compound 39] | – | – | – |
| 192 to 193 °C | 720 nM | O=c1cc(NCc2ccccc2)c(-c2nc[nH]n2)nn1-c1ccccc1 [Compound 42, 5-benzylamino-2-phenyl-6-(1H-1,2,4-triazol-3-yl)-3(2H)-pyridazinone] | 2% | – | – |
| – | 78 nM | O=c1cc(NC2CCCCC2)c(-c2nc[nH]n2)nn1-c1ccccc1 [Compound 43, 5-cyclohexylamino-2-phenyl-6-(1H-1,2,4-triazol-3-yl)-3(2H)-pyridazinone] | 5% | – | – |
| 262 to 264 °C | 340 nM | O=c1cc(Oc2ccccc2)c(-c2nc[nH]n2)nn1-c1cccc(F)c1 [Compound 46] | 9% | – | – |
| 172 to 174 °C | 3500 nM | O=c1cc(Nc2cccnc2)c(-c2nc[nH]n2)nn1-c1ccccc1 [Compound 52] | 9% | – | – |
| 251 to 252 °C | 44 nM | COc1ccc(Nc2cc(=O)n(-c3ccc(Cl)cc3)nc2-c2nc[nH]n2)cc1 [Compound 57, 2-(4-chlorophenyl)-5-[(4-methoxyphenyl)amino]-6-(1H-1,2,4-triazol-3-yl)-3(2H)-pyridazinone] | 5% | – | – |
| 270 to 273 °C | 80 nM | O=c1cc(Nc2ccc3c(c2)OCO3)c(-c2nc[nH]n2)nn1-c1ccc(Cl)cc1 [Compound 59, 2-(4-chlorophenyl)-5-[(3,4-methylenedioxyphenyl)amino]-6-(1H-1,2,4-triazol-3-yl)-3(2H)-pyridazinone] | – | 14% | – |
| 238 to 241 °C | 300 nM | COc1cc(Nc2cc(=O)n(-c3ccc(Cl)cc3)nc2-c2nc[nH]n2)cc(OC)c1OC [Compound 61] | – | 17% | – |
| 240 to 242 °C | 280 nM | O=c1cc(Nc2ccc(N3CCCCC3)cc2)c(-c2nc[nH]n2)nn1-c1ccc(Cl)cc1 [Compound 62] | – | 21% | – |
| 227 to 229 °C | 70 nM | CN1CCN(c2ccc(Nc3cc(=O)n(-c4ccc(Cl)cc4)nc3-c3nc[nH]n3)cc2)CC1 [Compound 63] | – | – | – |
| 276 to 279 °C | 63 nM | CN(C)c1ccc(Nc2cc(=O)n(-c3ccc(Cl)cc3)nc2-c2nc[nH]n2)cc1 [Compound 65] | – | 8% | – |
| 227 to 230 °C | 180 nM | CN1CCC(Nc2cc(=O)n(-c3ccc(Cl)cc3)nc2-c2nc[nH]n2)CC1 [Compound 68] | – | – | – |
| 212 to 215 °C | 140 nM | C=CCNc1cc(=O)n(-c2ccc(Cl)cc2)nc1-c1nc[nH]n1 [Compound 70] | – | – | 18% |
| 255 to 257 °C | 170 nM | O=c1cc(NCC2CC2)c(-c2nc[nH]n2)nn1-c1ccc(Cl)cc1 [Compound 71] | – | – | 16% |
| 285 to 290 °C | 800 nM | NCCCNc1cc(=O)n(-c2ccc(Cl)cc2)nc1-c1nc[nH]n1 [Compound 78] | – | – | – |
| 218 to 221 °C | 31 nM | CN1CCN(c2ccc(Nc3cc(=O)n(-c4ccc(Cl)cc4)cc3-c3nc[nH]n3)cc2)CC1 [Compound 81] | – | – | – |

Reference: patent publication US9371290B2, “Pyridazinone compounds” (BIOTIE THERAPIES CORPORATION, priority 2011, dated 2016)
